Test results taken from article PMC5405074, “Receptor-Mediated Melanoma Targeting with Radiolabeled α-Melanocyte-Stimulating Hormone: Relevance of the Net Charge of the Ligand” (Frontiers in Endocrinology, 2017).
Marks after values point to notes of the source that are not given here. Non-standard residues stand in square brackets, D forms with d. Residues, ends and D or L forms follow the SMILES beside them. *: point of attachment. DOTA = O=C(O)CN1CCN(CC(=O)O)CCN(CC(=O)*)CCN(CC(=O)O)CC1; Nle = CCCC[C@H](N)C(=O)O

What was measured:
B16-F1 cells = experiment: In situ melanin assay in B16-F1 cells; format: cell-based, mouse; settings: for Reduction of biological activity compared to DOTA-NAP-amide: melanin assay
Experimental: The biological activity of the α-MSH derivatives was assessed with an in situ melanin assay ([40]). Briefly, B16-F1 cells (2,500 cells per well in 100 µL) were distributed into 96-well flat-bottom cell culture plates. MEM without phenol red, supplemented with 10% heat-inactivated fetal calf serum, 2 mM L-glutamine, 0.31 mmol/L L-tyrosine, 1% non-essential amino acids, 1% vitamin solution, 50 IU/mL penicillin, and 50 µg/mL streptomycin, was used as culture medium. After overnight incubation at cell culture conditions mentioned above, concentrations of α-MSH derivatives ranging from 1 × 10^−8 to 1 × 10^−12 in 100-µL volumes were added (in threefold dilution steps), and the incubation was continued for an additional 72 h. Melanin production was quantified by determining the absorbance at 310 nm in a microplate reader.

[1] = in vivo; cited from earlier work

| SMILES | Reduction of biological activity compared to DOTA-NAP-amide (B16-F1 cells) | Reduction of biological activity compared to DOTA-NAP-amide (B16-F1 cells; listed as DOTA-NAP by D-Asp-D-Asp) | Biological activity rEC50 [α-MSH = 1] (B16-F1 cells; relative concentration vs. α-MSH (=1) inducing half-maximal melanin production by B16-F1 cells, 72 h, absorbance 310 nm, n = 3–13, ^c = P < 0.05 vs. DOTA-NAP-amide) | Tumor and non-tumor tissue uptake (in words) [1] |
| --- | --- | --- | --- | --- |
| CCCC[C@H](NC(C)=O)C(=O)N[C@@H](CC(=O)O)C(=O)N[C@@H](Cc1c[nH]cn1)C(=O)N[C@H](Cc1ccccc1)C(=O)N[C@@H](CCCNC(=N)N)C(=O)N[C@@H](Cc1c[nH]c2ccccc12)C(=O)NCC(=O)N[C@@H](CCCCNC(=O)CN1CCN(CC(=O)O)CCN(CC(=O)O)CCN(CC(=O)O)CC1)C(=O)N[C@H](CC(=O)O)C(=O)N[C@H](CC(=O)O)C(=O)O [DOTA-NAP-D-Asp-D-Asp, Ac-Nle-Asp-His-D-Phe-Arg-Trp-Gly-Lys(DOTA)-D-Asp-D-Asp-OH] (Ac-[Nle]DH[dF]RWGK(DOTA)[dD][dD]-OH) | > 10 fold | around 11 fold | 7.66 ± 0.33^c |  |
| CCCC[C@H](NC(C)=O)C(=O)N[C@@H](CC(=O)O)C(=O)N[C@@H](Cc1c[nH]cn1)C(=O)N[C@H](Cc1ccccc1)C(=O)N[C@@H](CCCNC(=N)N)C(=O)N[C@@H](Cc1c[nH]c2ccccc12)C(=O)NCC(=O)N[C@@H](CCCCNC(=O)CN1CCN(CC(=O)O)CCN(CC(=O)O)CCN(CC(=O)O)CC1)C(N)=O [DOTA-NAP-amide, [Ac-Nle^4,Asp^5,D-Phe^7,Lys^11(DOTA)]-α-MSH4-11, reference compound] |  |  |  | highest tumor uptake paired with minimal non-tumor tissue uptake, except for the kidneys |
